Results reported in EP2508186A1, “Phenoxazinones or phenothiazones as inhibitors of amyloid formation” (Max-Delbrück-Centrum für Molekulare Medizin, priority 2011, dated 2012).
Where two headings read alike, the source gives them in different places.

Legend:
Aβ42 [1] = target: T1, Aβ42 (Homo sapiens, UniProt P05067); assay: Transmission electron microscopy (TEM/AFM) of Aβ42 aggregate species; assay type: biochemical
T1 construct: the amyloid-β 1-42 (Aβ42) peptide
Description: 2.1.1. Protein aggregation. For aggregation reactions, Aβ42 stock solution (1 mM in DMSO) was diluted in phosphate buffer (100 mM sodium phosphate, 10 mM NaCl, pH 7.4) to 15 µM and incubated in 1.5 ml Eppendorf tubes (Eppendorf, Germany) at 37°C. Generation of soluble Aβ42 oligomers was performed as described (Lambert, 1998). Aβ42 DMSO stock solutions were diluted in Ham's F12 medium without phenol red (Biosource) at a final peptide concentration of 100 µM, with or without test compounds. After brief vortexing, samples were incubated at 4-6°C for 24 h. Alternatively, Aβ42 oligomers were prepared as described in (Ma, 2006) by diluting DMSO stock solution to a final Aβ42 concentration of 110 µM in 10 mM HEPES buffer pH 7.4. Samples were incubated in a glass vial with a micro stir bar at 37°C for 24 h and subsequently centrifuged (Beckman Coulter Microfuge R, rotor F241.5P) at 13,000 rpm.
2.2.2. 04 promotes the assembly of seeding-competent, β-sheet-rich Aβ42 fibrils. To examine the morphology of 04-generated protein aggregates, time course experiments were carried out and evaluated by transmission electron microscopy (TEM). After an incubation period of 4 d, worm-like Aβ42 protofibrils (Walsh, 1999) with a length of ∼30-150 nm and a diameter of -5 nm were predominantly detected in untreated aggregation reactions (Fig. 2c). […] A similar result was obtained after an incubation period of 7 d (Fig. 2c). […] At the same time, the number of oligomeric structures was reduced in 04-treated aggregation reactions (p < 1*10^-4).
We then investigated whether 04 treatment influences the assembly of small Aβ42 oligomers, which are preferentially formed at low temperature in cell-free assays (Lambert, 1998). Aβ42 monomers were incubated for 24 h at 6-8°C in the presence and absence of 04 and formation of oligomers was analyzed by TEM. In agreement with previously published data soluble fractions of untreated aggregation reactions contained large numbers of predominantly spherical Aβ42 oligomers with a diameter of 5-15 nm (Fig. 3e). […] In the presence of 04 a relatively large number of long amyloid fibrils was detected in insoluble fractions, while such structures were not observed in the absence of the chemical compound. However, in pellet fractions of untreated aggregation reactions smaller protofibrillar aggregate species were detected by TEM (Fig. 3e).
Analysis of amyloid fibrils by TEM and AFM also support the antibody binding results. While untreated Aβ42 aggregates in agreement with previously published studies (Bieschke, 2005) are straight fibrils and show a plain, highly regular surface, such a fibrillar morphology was not detected with 04 treated samples (Fig. 7e and f).

Aβ42 [2] = target: T1, Aβ42; assay: Thioflavin T (ThT) seeding assay with 04-generated Aβ42 fibrils; assay type: biochemical; conditions: fibrils produced with equimolar or 5-fold excess 04, sonicated seeds 3 % v/v added to Aβ42 15 µM monomers
Excerpt: We also investigated whether 04-generated Aβ42 fibrils are indeed seeding-competent structures. Amyloid fibrils were produced in vitro in the presence and absence of 04 and added as seeds to an excess of unpolymerized Aβ42 monomers. The formation of β-sheet-rich amyloid fibrils was then monitored over time using a Thioflavin T (ThT) dye binding assay (LeVine, 1999). […] Thus, the β-sheet-rich Aβ42 fibrils produced in the presence of 04 are seeding-competent structures that efficiently promote amyloid fibrillogenesis.

Aβ42 oligomers = target: T2, Aβ42 oligomers (Homo sapiens, UniProt P05067); assay: Colorimetric dot blot binding assay on nitrocellulose membrane; conditions: for Kd: 04 0.4-200 µM, 15 min, read-out: apparent dissociation constant
T2 construct: the amyloid-β 1-42 (Aβ42) peptide
T2 sequence (P05067 672-713 limits assumed): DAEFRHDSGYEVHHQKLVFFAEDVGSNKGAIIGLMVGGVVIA
Description: 2.2.4. 04 converts small, unstable Aβ42 oligomers into larger SDS-stable protein aggregates. To examine whether 04 converts small Aβ42 oligomers into larger amyloid fibrils, we first tested whether the compound can bind to different types of preformed aggregate species. Peptide preparations highly enriched in Aβ42 monomers (Ehrnhoefer, 2008), spherical oligomers (Ma, 2006) or large amyloid fibrils (Ehrnhoefer, 2008) were produced and incubated with 04 for 15 minutes at room temperature. Then, samples were spotted onto a nitrocellulose membrane and after washing with buffer (non-denaturing conditions) 04 binding was examined. As 04 is a dye and blue in color its binding to amyloid aggregates can be detected colorimetrically (Fig. 3c).
Binding of 04 to Aβ42 oligomers was quantified colorimetrically (Fig. 5).

Aβ42 [3] = target: T1, Aβ42; assay: SDS-PAGE (silver staining / immunoblotting) of Aβ42 aggregation products; assay type: biochemical
Description: 2.2.3. O4 promotes the formation of SDS-stable, protease-resistant protein aggregates. To investigate whether 04 treatment influences the stability of amyloid structures, we analyzed compound-treated Aβ42 aggregation reactions after 48 h with SDS-PAGE and silver staining (Fig. 3a). In the absence of 04, aggregation products resolved to monomers (-4 kDa), small oligomers (-10-12 and 14-16 kDa), medium-size oligomers (-100-150 kDa) and large aggregates (>250 kDa) in SDS gels, supporting previously published studies that Aβ42 monomers in vitro assemble into a heterogenous mixture of low and high molecular weight aggregate species (Bitan, 2003). However, in the presence of 04 an altered distribution of SDS-stable Aβ42 aggregate species was observed.
The effect of 04 on early aggregate species was also visible when treated and untreated Aβ42 preparations containing mainly small oligomers and protofibrils were analyzed after 24 h by SDS-PAGE and immunoblotting.
To investigate whether 04 treatment influences Aβ42 aggregate formation cell culture media were also analyzed by SDS-PAGE and silver staining (Fig. 9b). In-untreated samples, a relatively large amount of Aβ42 monomers (-4 kDa) and small oligomers (-12 kDa) was detected, while in 04 treated samples the concentration of these Aβ42 species was diminished.

T1 sequence (P05067 672-713 limits assumed): as above

number of oligomeric structures (Aβ42 [1]; Aβ42 15 µM, 04 150 µM, after 48 h, p < 1*10^-4): reduced
number of long amyloid fibrils (Aβ42 [1]; Aβ42 15 µM, 04 150 µM, after 48 h, untreated control 1.3%, p < 1*10^-5): 27%
length of amyloid fibrils (Aβ42 [1]; Aβ42 15 µM, 04 150 µM, incubation 4 d, untreated: protofibrils ∼30-150 nm): > 500 nm
spherical Aβ42 oligomers in soluble fractions (TEM) (Aβ42 [1]; Aβ42 100 µM, 04 10-fold molar excess, 24 h at 6-8°C in F12 medium): only very rarely detected
seeding competence of 04-generated Aβ42 fibrils (ThT fluorescence) (Aβ42 [2]): accelerate amyloid polymerization
Kd (Aβ42 oligomers; Aβ42 oligomers equivalent to monomer concentration 3 µM): 50 ± 2 µM
Kd (Aβ42 oligomers; Aβ42 oligomers equivalent to monomer concentration 6 µM): 25 ± 1 µM
Kd (Aβ42 oligomers; Aβ42 oligomers equivalent to monomer concentration 12 µM): 3.5 ± 0.1 µM
Hill coefficient n (Aβ42 oligomers; cooperative binding model fitted to the oligomer binding data): 4
Aβ42 monomers and small oligomers in cell culture media (SDS-PAGE, silver staining) (Aβ42 [3]; SH-SY5Y culture media, Aβ42 5 µM, 04 5 µM or 25 µM, 48 h): diminished
Structure (SMILES): O=c1cc2oc3cc(O)c(-c4ccc(O)cc4O)cc3nc-2cc1-c1ccc(O)cc1O [Compound 04, 2,8-bis-(2,4-dihydroxyphenyl)-7-hydroxy-phenoxazin-3-one]
morphology of amyloid fibrils (TEM and AFM) (Aβ42 [1]; Aβ42 15 µM, 04 75 µM, 4 d non-agitated, 37°C): mostly bent amyloid fibrils with a rough, irregular surface
04 staining of Aβ42 monomers, oligomers and fibrils (Aβ42 oligomers; Aβ42 preparations 15 µM, 04 3, 15 and 75 µM, 15 min at room temperature, non-denaturing wash): readily stains oligomeric and fibrillar Aβ42 aggregates, while monomers were less efficiently detected
distribution of SDS-stable Aβ42 aggregate species (SDS-PAGE, silver staining) (Aβ42 [3]; Aβ42 15 µM, 04 1.5-150 µM, 48 h, 37°C, cell-free): the relative amount of medium-size, SDS-stable oligomers and large aggregates was increased, while the amount of monomers and small oligomers was decreased
assembly of higher molecular weight Aβ42 aggregates (SDS-PAGE, immunoblotting) (Aβ42 [3]; preformed Aβ42 oligomers 110 µM, 04 30, 100 and 300 µM, 24 h): stimulates the assembly of SDS-stable, higher molecular weight Aβ42 aggregates in a concentration-dependent manner
